PMC10449631 (Nature Chemical Biology, 2023)
Several values for one entry are separate records, joined by “and”; a condition that tells them apart may be missing. Equal entries are not always repeated. No end group written: not given here.

Assays:
[1] = biological target: T1, PaAP_T (P. aeruginosa aminopeptidase, C-terminal truncated) (Pseudomonas aeruginosa, UniProt Q02PA2); experiment: Inhibition of PaAP_T in the Leu-pNA aminopeptidase assay (KI, IC50); type: biochemical; details: for IC50 plot data (PaAP_T activity at given peptide concentration): (S) = 2 mM, PaAP 100 nM, listed as ERWGHDFIK (linear)
T1 construct: PaAP (WT, residues 27–536); His6 (TEV cleavable) (N, cleaved yes); made in house; host or cells: E. coli SHuffle T7
Method: Aminopeptidase activity was determined spectrophotometrically primarily using amino Leu-pNA. Other commercially available pNA substrates (isoleucine, methionine, alanine, valine, proline, arginine, lysine and phenylalanine) were also assayed. Leu-pNA was incubated with enzyme (100 nM) in assay buffer (50 mM Tris, pH 8.5, 200 mM NaCl) at 25 °C. A pNA release caused an absorbance increase at 405 nm, monitored using a BMG Labtech plate reader. […] Data were plotted in GraphPad Prism (version 9) and the Michalis Menten equation was used for fitting.
Inhibition assays were carried out with the following peptides: linear-ERWGHDFIK (PaAP C-terminal residues), cyclic-ERWGHDFIK, N-acetylated and C-amidated ERWGHDFIK. IC50 values were determined by varying peptide concentration at a fixed substrate concentration (fixed at KM, (S) = 2 mM, PaAP concentration was 100 nM). […] KI values were determined by fitting the data to equation (1) (Morrison’s equation):1 v=1−Et+I+KI−Et+I+KI^2−4EtIKI/2Et where v is the velocity, Et is the total enzyme concentration, I is the concentration of inhibitor and KI is the equilibrium dissociation constant for the inhibitor. IC50 values increased when measured at increasing S, consistent with competitive inhibition.

PaAP = biological target: T2, PaAP (Pseudomonas aeruginosa, UniProt Q02PA2, A513L/Q514V/S515P); experiment: Peptide digestion assay (overnight and time course, LC-MS/MALDI); type: biochemical; details: for substrate of / degraded by PaAP (words): incubated with PaAP overnight, LC–MS or MALDI; for P0 (parent peptide, LC–MS signal): 500 μM peptide, 1 μM PaAP_T
T2 construct: PaAP (WT, residues 27–536); His6 (TEV cleavable) (N, cleaved yes); made in house; host or cells: E. coli SHuffle T7
Method: A variety of peptides of varying lengths and compositions were incubated with PaAP at room temperature. Assays were performed by incubating (overnight at room temperature) 500 μM of substrate (peptides) with 1 μM enzyme (PaAP) in reaction buffer (50 mM Tris, pH 8.5, 100 mM NaCl). The reactions were quenched by heating to 100 °C for 10 min followed by centrifugation at 17,000g in a benchtop centrifuge to remove precipitate. Supernatant was collected and samples were analyzed by LC–MS. Initial trial assays were carried out in the presence and absence (control) of enzyme to determine if the substrate was degraded (single or triplicate experiments). Time-course assays were performed on selected peptide substrates in triplicate. A 300 μl reaction (including 500 μM of substrate) was initiated by the addition of 1 μM enzyme. The reaction was incubated at room temperature. The reaction was quenched at set timepoints by the removal of 30 μl aliquots, which were immediately heated to 100 °C for 10 min. The samples were analyzed by LC–MS using a Xevo Q-ToF (Waters) as described below, searching for masses of all peptide breakdown products.
Peptide degradation time courses were fitted to exponential equations as follows:
P0 peptide consumption was fitted to a single exponential equation (equation (2)) with the format2 yt=y0−Plateaue^−kt+Plateau
Time courses for the formation and decay of peptide intermediates were fitted to double exponential equations (equation (3)) and single exponential equations, followed by a linear phase (4)3 yt=y0−Plateau1e^−k1t+y0−Plateau2e^−k2t+Plateau 4 yt=y0−Plateaue^−kt+vt+Plateau where y(t) is the product formed at time t, y0 − Plateau is the amplitude of the exponential phase, k is the observed rate constant for the exponential phase, y0 is the value of y at time 0, Plateau is the value of y after exponential phase, C is the offset and v is the slope of the linear phase.
Peptide samples incubated in the presence and absence of PaAP were initially analyzed by MALDI. The peptide sample (0.5 µl at 10 µM) was spotted along with matrix (0.5 µl 10 mg ml^−1 α-cyano-4-hydroxycinnamic acid in ACN/0.1% TFA (50/50, vol/vol)) on a stainless steel MALDI plate and left to dry. The sample plate was loaded into a Sciex 4800 MALDI mass spectrometer. The laser voltage was adjusted to give a good signal to noise strength, and 50 shots were acquired in a random pattern across the spot and spectra combined. The spectra were externally calibrated with Sciex Pepcal mix (range: 500–4,000 m/z).

T2 sequence (Q02PA2 37-516 A513L/Q514V/S515P): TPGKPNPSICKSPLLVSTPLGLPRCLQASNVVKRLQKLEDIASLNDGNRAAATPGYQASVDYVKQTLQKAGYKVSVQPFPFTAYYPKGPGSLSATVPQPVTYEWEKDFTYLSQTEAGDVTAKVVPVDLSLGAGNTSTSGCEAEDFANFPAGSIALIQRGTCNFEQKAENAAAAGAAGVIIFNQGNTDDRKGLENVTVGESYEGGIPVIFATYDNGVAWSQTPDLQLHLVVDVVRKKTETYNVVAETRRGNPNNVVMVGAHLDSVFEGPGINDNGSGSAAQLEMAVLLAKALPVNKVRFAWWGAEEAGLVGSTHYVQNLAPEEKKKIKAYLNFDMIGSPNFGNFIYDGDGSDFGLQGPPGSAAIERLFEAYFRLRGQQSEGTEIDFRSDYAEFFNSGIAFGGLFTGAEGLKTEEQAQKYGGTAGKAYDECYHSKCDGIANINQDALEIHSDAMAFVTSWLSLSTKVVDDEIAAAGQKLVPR
T1 sequence (Q02PA2 37-516, looked up, natural form): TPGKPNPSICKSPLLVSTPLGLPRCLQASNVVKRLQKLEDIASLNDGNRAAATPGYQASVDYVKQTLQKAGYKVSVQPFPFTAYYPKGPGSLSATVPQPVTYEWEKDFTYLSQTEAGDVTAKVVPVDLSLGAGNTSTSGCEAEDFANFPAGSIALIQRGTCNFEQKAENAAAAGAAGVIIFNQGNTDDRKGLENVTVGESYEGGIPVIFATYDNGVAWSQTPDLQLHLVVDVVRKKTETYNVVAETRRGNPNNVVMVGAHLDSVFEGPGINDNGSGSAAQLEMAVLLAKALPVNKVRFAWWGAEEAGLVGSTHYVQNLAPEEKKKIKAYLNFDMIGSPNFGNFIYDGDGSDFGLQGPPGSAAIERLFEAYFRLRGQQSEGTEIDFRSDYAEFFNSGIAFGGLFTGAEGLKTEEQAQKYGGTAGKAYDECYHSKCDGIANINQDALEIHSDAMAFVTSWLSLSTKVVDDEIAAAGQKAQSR

## ERWGHDFIK [linear-ERWGHDFIK]
[1]
  Ki: 9.98 µM
[1]; inhibitor 1 μM, [S] 0.125 mM
  Slope: 21.4683 and 20.3052 and 17.979
[1]; inhibitor 1 μM, [S] 0.25 mM
  Slope: 41.2291 and 37.1458 and 30.365
[1]; inhibitor 1 μM, [S] 0.5 mM
  Slope: 67.9068 and 67.7954 and 67.0654
[1]; inhibitor 1 μM, [S] 1 mM
  Slope: 121.633 and 131.285 and 109.532
[1]; inhibitor 1 μM, [S] 2 mM
  Slope: 200.701 and 204.537 and 171.128
[1]; inhibitor 1 μM, [S] 4 mM
  Slope: 291.524 and 268.014 and 241.411
[1]; inhibitor 5 μM, [S] 0.125 mM
  Slope: 9.581 and 8.778 and 8.696
[1]; inhibitor 5 μM, [S] 0.25 mM
  Slope: 32.4809 and 31.8746 and 26.7767
[1]; inhibitor 5 μM, [S] 0.5 mM
  Slope: 59.2205 and 59.9629 and 55.5826
[1]; inhibitor 5 μM, [S] 1 mM
  Slope: 96.3415 and 104.397 and 108.74
[1]; inhibitor 5 μM, [S] 2 mM
  Slope: 181.646 and 174.716 and 170.509
[1]; inhibitor 5 μM, [S] 4 mM
  Slope: 244.875 and 240.668 and 225.201
[1]; inhibitor 10 μM, [S] 0.125 mM
  Slope: 20.5527 and 17.7562 and 12.5469
[1]; inhibitor 10 μM, [S] 0.25 mM
  Slope: 41.2291 and 35.2155 and 27.5686
[1]; inhibitor 10 μM, [S] 0.5 mM
  Slope: 78.3873 and 67.5108 and 53.8255
[1]; inhibitor 10 μM, [S] 1 mM
  Slope: 125.469 and 113.021 and 101.823
[1]; inhibitor 10 μM, [S] 2 mM
  Slope: 183.502 and 182.636 and 149.35
[1]; inhibitor 10 μM, [S] 4 mM
  Slope: 242.153 and 233.244 and 209.115
[1]; inhibitor 25 μM, [S] 0.125 mM
  Slope: 6.59 and 5.065
[1]; inhibitor 25 μM, [S] 0.25 mM
  Slope: 13.4378 and 10.2466 and 12.344
[1]; inhibitor 25 μM, [S] 0.5 mM
  Slope: 24.5618 and 19.0802 and 21.3817
[1]; inhibitor 25 μM, [S] 1 mM
  Slope: 49.4576 and 37.8759 and 44.6938
[1]; inhibitor 25 μM, [S] 2 mM
  Slope: 81.2827 and 58.2058 and 83.8441
[1]; inhibitor 25 μM, [S] 4 mM
  Slope: 157.641 and 123.551 and 157.764
[1]; inhibitor 50 μM, [S] 0.25 mM
  Slope: 11.9777 and 10.1576 and 8.79
[1]; inhibitor 50 μM, [S] 0.5 mM
  Slope: 21.0971 and 19.6494 and 15.7888
[1]; inhibitor 50 μM, [S] 2 mM
  Slope: 58.0945 and 62.2891 and 43.8276
[1]; inhibitor 50 μM, [S] 4 mM
  Slope: 81.3941 and 82.5449 and 61.3735
[1]; inhibitor 100 μM, [S] 0.125 mM
  Slope: 4.015 and 2.528
[1]; inhibitor 100 μM, [S] 0.25 mM
  Slope: 7.23 and 6.8674 and 5.4469
[1]; inhibitor 100 μM, [S] 0.5 mM
  Slope: 11.4246 and 12.4479 and 9.504
[1]; inhibitor 100 μM, [S] 1 mM
  Slope: 22.1736 and 23.0274 and 17.6325
[1]; inhibitor 100 μM, [S] 2 mM
  Slope: 38.6801 and 37.22 and 41.7859
[1]; inhibitor 100 μM, [S] 4 mM
  Slope: 61.8313 and 63.972 and 50.5094
[1]; log(I) 0
  IC50 plot data (PaAP_T activity at given peptide concentration): 90.0485 and 96.6538 and 93.9669
[1]; log(I) 0.39794
  IC50 plot data (PaAP_T activity at given peptide concentration): 67.4338 and 85.0852 and 79.5995
[1]; log(I) 0.69897
  IC50 plot data (PaAP_T activity at given peptide concentration): 45.9385 and 56.7981 and 56.8354
[1]; log(I) 1
  IC50 plot data (PaAP_T activity at given peptide concentration): 21.9729 and 26.522 and 23.891
[1]; log(I) 1.39794
  IC50 plot data (PaAP_T activity at given peptide concentration): 12.1508 and 12.1918 and 12.9158
[1]; log(I) 1.69897
  IC50 plot data (PaAP_T activity at given peptide concentration): 10.3856 and 11.9269 and 11.4231
[1]; log(I) 2
  IC50 plot data (PaAP_T activity at given peptide concentration): 9.945 and 11.4156 and 11.076
[1]; log(I) -0.30103
  IC50 plot data (PaAP_T activity at given peptide concentration): 92.6981 and 112.924 and 94.3774
PaAP
  substrate of / degraded by PaAP (words): acts as a substrate
PaAP; listed as ERWGHDFIK
  substrate of / degraded by PaAP (words): capable of processing
PaAP; time 0 minutes
  P0 (parent peptide, LC–MS signal): 472729 and 388218 and 391107
PaAP; time 5 minutes
  P0 (parent peptide, LC–MS signal): 463970 and 401514 and 388992
PaAP; time 10 minutes
  P0 (parent peptide, LC–MS signal): 456641 and 389333 and 386619
PaAP; time 30 minutes
  P0 (parent peptide, LC–MS signal): 422990 and 361623 and 355988
PaAP; time 60 minutes
  P0 (parent peptide, LC–MS signal): 374560 and 318426 and 323916
PaAP; time 90 minutes
  P0 (parent peptide, LC–MS signal): 323540 and 290204 and 288024
PaAP; time 120 minutes
  P0 (parent peptide, LC–MS signal): 238229 and 257847
PaAP; time 1220 minutes
  P0 (parent peptide, LC–MS signal): 623.109 and 431.795 and 326.884
